Results on two compounds are retold here after patent publication US20070122422A1, “Sodium-independent small neutral amino acid transporter transporting L- and D- amino acids” (Japan Science and Technology Corporation, priority 2000, published 2007).

Entries after “also recorded” stand apart in the source; their conditions may differ.

Common to all, as to type: cell-based
For experiment [1], the target named is T1, asc-1 of mouse (co-expressed with 4F2hc of mouse) (Mus musculus, UniProt P63115).
T1 construct: expressed in transfected cells; host or cells: Xenopus oocytes injected with cRNA
T1 sequence (P63115 1-530): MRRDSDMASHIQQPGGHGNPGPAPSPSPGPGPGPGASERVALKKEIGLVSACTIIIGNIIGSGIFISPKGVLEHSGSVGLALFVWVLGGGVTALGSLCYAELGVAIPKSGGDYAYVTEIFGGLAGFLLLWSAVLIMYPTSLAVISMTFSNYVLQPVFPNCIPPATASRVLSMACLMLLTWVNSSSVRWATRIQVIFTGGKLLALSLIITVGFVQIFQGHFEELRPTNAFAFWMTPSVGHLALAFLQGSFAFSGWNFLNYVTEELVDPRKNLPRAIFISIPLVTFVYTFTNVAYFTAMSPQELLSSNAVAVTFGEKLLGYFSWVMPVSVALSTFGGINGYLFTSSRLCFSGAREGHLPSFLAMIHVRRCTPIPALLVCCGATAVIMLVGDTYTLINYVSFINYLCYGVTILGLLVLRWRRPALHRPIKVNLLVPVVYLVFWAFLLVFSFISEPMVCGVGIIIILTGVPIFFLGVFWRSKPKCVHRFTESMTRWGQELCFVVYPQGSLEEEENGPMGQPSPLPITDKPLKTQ
T1 sequence (P10852 1-526 partner): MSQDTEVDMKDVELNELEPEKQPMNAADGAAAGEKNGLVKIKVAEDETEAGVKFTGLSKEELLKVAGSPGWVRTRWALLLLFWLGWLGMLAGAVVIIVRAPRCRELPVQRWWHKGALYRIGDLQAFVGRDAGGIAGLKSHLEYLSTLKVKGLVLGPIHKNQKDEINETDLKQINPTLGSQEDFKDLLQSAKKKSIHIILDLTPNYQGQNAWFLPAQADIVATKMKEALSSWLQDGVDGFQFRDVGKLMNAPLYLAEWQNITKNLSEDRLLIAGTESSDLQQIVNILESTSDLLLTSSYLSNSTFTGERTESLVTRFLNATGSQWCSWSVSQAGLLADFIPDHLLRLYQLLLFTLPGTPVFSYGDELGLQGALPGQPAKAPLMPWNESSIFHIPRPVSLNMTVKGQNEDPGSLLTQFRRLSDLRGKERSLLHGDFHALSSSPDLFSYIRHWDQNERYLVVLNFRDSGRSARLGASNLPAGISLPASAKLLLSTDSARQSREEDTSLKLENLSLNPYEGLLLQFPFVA
As to the kind of experiment: Michaelis-Menten kinetic test of substrate incorporation by Xenopus oocytes co-expressing asc-1 and 4F2hc. The note with it: ratio to the Vmax value for alanine (defined as 1.00).

Experiment [2] deals with T1, asc-1 of mouse (co-expressed with 4F2hc of mouse). As to the kind of experiment: Release of preloaded 14C-alanine from oocytes co-expressing asc-1 and 4F2hc on extracellular addition of compound. The settings on record: for increase in the release of preloaded 14C-alanine: 100 μM compound added to Na+-free uptake solution, room temperature. The protocol:
Release of a preloaded ^14C-alanine mediated by asc-1 was checked in the oocytes into which both asc-1 gene cRNA and 4F2hc gene cRNA of mouse were injected together. ^14C-Alanine (−3nCi) of 100 μM in an amount of 100 nl was injected into the oocytes into which both asc-1 gene cRNA and 4F2hc gene cRNA of mouse were injected together, washed with an ice-cooled Na^+-free uptake solution containing no alanine and transferred to a Na^+-free uptake solution to which alanine (100 μM) was added or not added at room temperature (18° C.-22° C.) and the amount of ^14C-alanine released outside the cells was measured.
In oocytes into which cRNA of asc-1 gene and cRNA of 4F2hc gene of mouse were injected together, release of preloaded ^14C-alanine mediated by asc-1 was investigated whereupon it was checked whether the compound which inhibited the incorporation of ^14C-alanine mediated by asc-1 was a substrate of asc-1.
^14C-Alanine (−3nCi) of 100 μM in an amount of 100 nl was injected into the oocytes into which both asc-1 gene cRNA and 4F2hc gene cRNA of mouse were injected together, washed with an ice-cooled Na^+-free uptake solution containing no alanine and transferred to a Na^+-free uptake solution to which amino acid or amino acid analog (100 μM) was added or not added at room temperature (18° C.-22° C.) and the amount of ^14C-alanine released outside the cells was measured.
Black bars in FIG. 18 are the case where there were used oocytes into which cRNA of mouse asc-1 gene and cRNA of mouse 4F2hc gene were injected while white bars are the case where there were used oocytes into which water was injected instead of cRNA as a control.

Experiment [3] concerns the target T2, human asc-1 (co-expressed with human 4F2hc) (Homo sapiens, UniProt Q9NS82).
T2 construct: expressed in transfected cells
T2 sequence (Q9NS82 1-523): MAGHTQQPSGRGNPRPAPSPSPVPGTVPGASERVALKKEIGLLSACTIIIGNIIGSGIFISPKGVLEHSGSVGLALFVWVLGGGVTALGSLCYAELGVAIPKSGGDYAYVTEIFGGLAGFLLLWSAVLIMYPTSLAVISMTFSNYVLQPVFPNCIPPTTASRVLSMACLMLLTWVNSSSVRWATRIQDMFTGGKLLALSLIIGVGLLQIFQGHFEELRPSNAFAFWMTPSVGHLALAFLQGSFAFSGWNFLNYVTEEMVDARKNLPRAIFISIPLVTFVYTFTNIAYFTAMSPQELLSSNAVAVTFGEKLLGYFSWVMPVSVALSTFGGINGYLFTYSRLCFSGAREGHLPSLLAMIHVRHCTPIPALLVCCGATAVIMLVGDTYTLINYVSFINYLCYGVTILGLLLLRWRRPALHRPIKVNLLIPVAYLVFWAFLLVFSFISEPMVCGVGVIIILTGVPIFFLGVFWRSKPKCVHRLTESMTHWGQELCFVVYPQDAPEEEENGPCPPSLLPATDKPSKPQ
As to the kind of experiment: Incorporation of 14C-alanine by oocytes co-expressing human asc-1 and human 4F2hc. The note with it: oocytes where both human asc-1 and 4F2hc were expressed together.
Description: Comparison was made between incorporation of ^14C-alanine in the case where human asc-1 gene cRNA was solely expressed in oocytes with that in the case where both human asc-1 gene cRNA and human 4F2hc gene cRNA were expressed in oocytes. Expression was carried out by injection of 12.5 ng of human asc-1 gene cRNA, 12.5 ng of human 4F2hc gene cRNA or 12.5 ng of human asc-1 gene cRNA/12.5 ng of human 4F2hc gene cRNA into oocytes and incubation was conducted for three days. With regard to the oocytes into which human asc-1 gene cRNA, 4F2hc gene cRNA or human asc-1 gene cRNA/4F2hc gene cRNA was injected, an experiment for incorporation of substrate was carried out according to Example 2(1) using alanine as a substrate.

Take `C[C@H](N)C(=O)O` [L-Alanine]: the Vmax result in experiment [1] was “(1.00)”. Besides, the “increase in the release of preloaded 14C-alanine” value in experiment [2] is listed as “significantly increased; also recorded: high increase”. Further, in experiment [2] (alanine not added to Na+-free uptake solution), the “release of 14C-alanine without alanine outside the cells” value is given as “significant release”. Besides, in experiment [3], the incorporation of alanine result was “big incorporation”.

On to `N[C@@H](CO)C(=O)O` [L-Serine], for which the Vmax in experiment [1] was 1.02. For the same compound, in experiment [2], the “increase in the release of preloaded 14C-alanine” value is given as “high increase”.
